Laboratory results as given in patent US8415312B2, “Compound which is a nystatin derivative” (Biosergen AS, priority 2007, dated 2013).
Converted amounts (≈) assume the structure as drawn. “And” between values parts separate entries of the source, which are not always exact repeats. Equal values may be shown once.

Columns and labels:
[1] = tested on: Aspergillus niger ATCC 16404; test: Antifungal susceptibility study (1), broth microdilution MIC; format: cell-based; settings: lowest concentration preventing any visible growth, read at 48 hours, 35° C., RPMI 1640 pH 7.0
Procedure, shortened: (§1)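 Broth microdilution was run at pH 7.0 with compounds diluted from DMSO solutions and mixed 1:1 with conidial inoculum. Spore suspensions were adjusted to OD530 0.09-0.11 for A. niger or 0.15-0.17 for F. oxysporum, then diluted 1:50. Plates were incubated at 35° C without agitation, and MIC was read at 48 hours as absence of visible growth.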

[2] = tested on: Fusarium oxysporum VKM F-140; test: as above; format: cell-based; settings: lowest concentration preventing any visible growth, read at 48 hours, 35° C., RPMI 1640 pH 7.0
Procedure, shortened: as §1

[3] = tested on: Candida albicans ATCC 14053; test: as above; format: cell-based; settings: lowest concentration preventing any visible growth, read at 48 hours, 35° C., RPMI 1640 pH 7.0
Procedure, shortened: (§2)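 Broth microdilution in test medium at pH 7.0 with two-fold compound dilutions (DMSO stocks diluted 50-fold into medium), inoculated with freshly grown yeast cultures. Plates were incubated without agitation at 35° C. for C. albicans or 25° C. for C. humicolus. MIC was taken as the concentration with no visible growth, read at 48 hours.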

[4] = tested on: Cryptococcus humicolus ATCC 9949; test: as above; format: cell-based; settings: lowest concentration preventing any visible growth, read at 48 hours, 25° C., RPMI 1640 pH 7.0
Procedure, shortened: as §2

human blood erythrocytes = test: In vitro toxicity study, haemolysis (Table 10); format: cell-based; settings: for Haemolysis of human blood erythrocytes: individual blood samples # 1-3
[5] = tested on: yeasts and filamentous fungi (moulds); test: Antifungal susceptibility study (1), overall comparison across the test organisms; format: cell-based; settings: Table 5 MICs
Protocol: The organisms used for susceptibility testing were: Candida albicans ATCC 14053, Cryptococcus humicolus ATCC 9949, Aspergillus niger ATCC 16404 and Fusarium oxysporum VKM F-140 (=CMI, IMI 90473). Organisms were stored on potato dextrose agar […] 50% glycerol solution at -70° C. For short-term storage, stock cultures were stored on agar […] 4° C. The cultures of yeasts were sub-cultured onto Sabouraud dextrose (SAB) agar and incubated for 24 hours at 35° C. (Candida albicans) or for 48 hours at 25° C. (Cryptococcus humicolus) to obtain a freshly grown pure culture. The cultures of moulds were sub-cultured onto potato dextrose agar and incubated for 7 days at 35° C. […] (Fusarium oxysporum) to ensure maximum sporulation. Sterile 96-well flat-bottomed microtitration plates were used for testing. 100 μl of diluted inocula were dispensed into each microdilution well containing 100 μl of the double dilutions of compounds. Drug-free and yeast/mould-free controls were included. Microdilution trays were incubated at 35° C. (Candida albicans and moulds) or 25° C. (Cryptococcus humicolus) without agitation and observed for the presence or absence of visible growth. […] Minimal inhibitory concentrations (MICs) were read at 48 hours.

[6] = tested on: Candida albicans ATCC 10231; test: Antifungal susceptibility study (2), MIC50 by OD490 growth; format: cell-based; settings: 50% growth inhibition from regression curve, M19 medium without NaCl, 30° C.
Protocol: The anti-fungal activity of several of the nystatin derivatives was further investigated. […] The anti-fungal activity of a number of the nystatin derivatives was therefore determined in a method which is designed to be more sensitive.
The test organism used for the further testing of polyene macrolide bioactivity was Candida albicans ATCC 10231, grown in 120 μl of standard M19 medium without NaCl (with an inoculum of 1000 cfu per well) and 30 μl of diluted polyene macrolide samples. The antibiotics were diluted in MeOH in series ensuring a spectrum of concentrations which yielded results ranging from complete growth inhibition to no inhibition of the test organism. The test organism cultures with antibiotic dilutions were incubated in 96-well microtiter plates at 30° C. without shaking, and growth was measured as OD490 after 12, 14 and 16 hours on a SpectraMax Plus microtiter plate reader. OD was plotted against antibiotic concentration, and MIC50 was estimated from the regression curve at 50% growth inhibition.

erythrocytes = test: In vitro toxicity study, haemolysis (Tables 11 and 12); format: cell-based, horse; settings: for Haemolysis of erythrocytes, Mean ± SE: 5 μg/mL (Table 11)
Protocol: The toxicity of various nystatin derivatives was tested at 2 and 5 μg/mL and at 25 μM.
Compounds were dissolved in DMSO at 5 mg/mL and 0.1 mL samples with different concentrations were prepared in DMSO. The samples were mixed with 0.9 mL PBS buffer containing 2.5% horse blood (PBS-HB; kept on ice) and incubated at 37° C. for 30 min without agitation.
Cells were pelleted by centrifugation at 5000 rpm for 5 min and haemolysis was evaluated by measuring OD545. 100% haemolysis was defined as the OD545 value obtained from a suspension of 2.5% horse blood in distilled water.

[7] = tested on: mice (C57B1/6xDBA/2)F1 B6D2F1; settings: single injection into tail vein, probit analysis
Protocol: (§3) Male mice of hybrids of first generation (C57B1/6xDBA/2)F1 B6D2F1, weight 20-22 g., received from the Central farm. “Kryukovo” of Russian Academies of Medical Science (RAMS) were used. Animals were maintained in a vivarium in plastic cages (with hardwood bedding in environmentally controlled conditions: 24±1° C., 12/12 hours light/dark cycle) on a standard diet of bricketed forages with easy access to drinking water (ad libitum). After a 2-week quarantine period, healthy animals were used in experimental work.
(§4) The solutions were prepared as follows: dry antibiotic substances (5 mg) were mixed with dry sodium deoxycholate (4.1 mg) in a sterile glass vial. 10 mL of phosphate buffer (NaH2PO4—1.59 g; Na2HPO4—0.96 g; H2O—to 100 mL) was added to the mix and the suspension was immediately subjected to vigorous shaking for 10 minutes until homogeneous suspensions were formed.
Preparations of amphotericin B and S44HP were also prepared in the same way.
The antibiotic preparations were singly injected into the mice's tail vein within 1-1.5 hours after the preparation of solutions. […] Each antibiotic was used in a range of doses resulting in 0% to 100% lethality and a minimum of 3 intermediate doses. Animals were randomized into groups, each containing 6 mice.

[8] = tested on: Candida albicans (strain 14053 ATCC); test: In vivo antifungal activity, kidney burden in infected mice; settings: colonies per 1 g of kidney tissue, day 5, individual mice
Protocol: as §3, §4
Animals were infected intravenously with Candida albicans culture at a dose of 1.0 million CFU/mouse (volume 0.1 mL). 30 minutes after infection, the antifungal agents were introduced intravenously into the mice at various doses in a volume of 0.2 mL (at a rate of 0.2 mL/30 second). Each dose was administered daily for four days including the day of infection (0, 1, 2 and 3 days).
As a control, there was a group of untreated mice (infected in the same way with Candida albicans). Also there was a “placebo” group of non-infected animals which were intravenously administered (in the same volume as antifungal agent preparations) 0.2 mL of solvent (phosphatic buffer +5% glucose (1:1)).
On the 5th day of experiment, mice were weighed and euthanized (killed) by a cervical dislocation. Then, in sterile conditions, the Candida albicans burden of each mouse was determined by counting of viable homogenates from the kidneys. The kidneys were removed aseptically and weighed, then pounded in porcelain mortars with sterile corundum. Dilutions of the resulting suspensions were prepared and sowed on Petri dishes with agar Saburo, incubated for 24 hours at a temperature of 35° C. Developed colonies of Candida albicans were then counted and their quantity calculated on the basis of 1 g of kidney tissue.

[9] = 5 μg/mL, individual blood samples # 1-3 (Table 11)

Row | SMILES | MIC Aspergillus niger ATCC 16404 [1] | MIC Fusarium oxysporum VKM F-140 [2] | MIC Candida albicans ATCC 14053 [3] | MIC Cryptococcus humicolus ATCC 9949 [4] | Haemolysis of human blood erythrocytes, MEAN ± SE (human blood erythrocytes; 2 μg/mL) | Haemolysis of human blood erythrocytes (human blood erythrocytes; 2 μg/mL) | Haemolysis of human blood erythrocytes, MEAN ± SE (human blood erythrocytes; 5 μg/mL) | Haemolysis of human blood erythrocytes (human blood erythrocytes; 5 μg/mL) | anti-fungal activity compared with Amphotericin B and S44HP [5] | MIC50 [6] | Haemolysis of erythrocytes, Mean ± SE (erythrocytes) | Haemolysis of erythrocytes (erythrocytes; [9]) | LD50 [7] | MTD [7] | Number of Colonies ([8]; 0.08 mg/kg × 4/24 i.v.) | Number of Colonies ([8]; 0.15 mg/kg × 4/24 i.v.) | Number of Colonies ([8]; 0.3 mg/kg × 4/24 i.v.) | Number of Colonies ([8]; 0.6 mg/kg × 4/24 i.v.) | Haemolysis of erythrocytes, Mean ± S.E.M. (erythrocytes; 25 μM (Table 12)) | Haemolysis of erythrocytes (erythrocytes; 25 μM, individual blood samples (Table 12))
1 | COC(=O)C(CO)NC(=O)C1C(O)CC2(O)CC(O)C(O)CCC(O)CC(O)CC(O)CC(=O)OC(C)C(C)C(O)C(C)C=CC=CC=CC=CC=CC=CC=CC(OC3OC(C)C(O)C(N)C3O)CC1O2 (mixture of isomers) [Compound 14] | 2 µg/mL | 4 µg/mL | 1 µg/mL | 1 µg/mL | 2.5 ± 0.07% | 2.7% and 2.5% (2×) | 4.9 ± 0.2% | 4.8% and 4.5% and 5.3% | comparable anti-fungal activity to Amphotericin B and S44HP |  |  |  |  |  |  |  |  |  |  | 
2 | CC1C=CC=CC=CC=CC=CC=CC=CC(OC2OC(C)C(O)C(N)C2O)CC2OC(O)(CC(O)C(O)CCC(O)CC(O)CC(O)CC(=O)OC(C)C(C)C1O)CC(O)C2C(=O)N1CCN(CCO)CC1 (stereo not shown) [Compound 15] | 2 µg/mL (≈ 1.93 µM) | 4 µg/mL (≈ 3.86 µM) | 1 µg/mL (≈ 0.965 µM) | 2 µg/mL (≈ 1.93 µM) |  |  |  |  |  | 0.20 µg/mL (≈ 0.193 µM) | 2.6 ± 0.1% | 2.8% and 2.4% and 2.7% |  |  |  |  |  |  |  | 
3 | C[C@@H]1[C@H](O)[C@@H](C)/C=C/C=C/C=C/C=C/C=C/C=C/C=C/[C@H](O[C@@H]2O[C@H](C)[C@@H](O)[C@H](N)[C@@H]2O)C[C@@H]2O[C@](O)(C[C@@H](O)[C@H](O)CC[C@@H](O)C[C@@H](O)C[C@@H](O)CC(=O)O[C@H]1C)C[C@H](O)[C@H]2C(=O)O [Compound S44HP, reference compound] | 1 µg/mL (≈ 1.08 µM) | 4 µg/mL (≈ 4.33 µM) | 1 µg/mL (≈ 1.08 µM) | 1 µg/mL (≈ 1.08 µM) |  |  |  |  |  | 0.12 µg/mL (≈ 0.13 µM) |  |  | 2.05 mg/kg | 0.64 mg/kg | 2.7 × 10^4 and 8.0 × 10^4 and 8.2 × 10^4 | 8.0 × 10^3 and 6.4 × 10^3 and 1.6 × 10^4 | 2.7 × 10^3 and 9.4 × 10^3 and 1.3 × 10^4 | 2.5 × 10^3 and 8.8 × 10^3 and 1.2 × 10^3 |  | 
4 | CC1C=CC=CC=CC=CC=CC=CC=CC(OC2OC(C)C(O)C(N)C2O)CC2OC(O)(CC(O)C(O)CCC(O)CC(O)CC(O)CC(=O)OC(C)C(C)C1O)CC(O)C2C(=O)NCCCO (stereo not shown) [Compound 12] | 2 µg/mL (≈ 2.04 µM) | 2 µg/mL (≈ 2.04 µM) | 1 µg/mL (≈ 1.02 µM) | 1 µg/mL (≈ 1.02 µM) |  |  |  |  | comparable anti-fungal activity to Amphotericin B and S44HP | 0.14 µg/mL (≈ 0.143 µM) | 4.4 ± 0.3% | 5% and 4.3% and 4.0% |  |  |  |  |  |  |  | 
5 | CC1C=CC=CC=CC=CC=CC=CC=CC(OC2OC(C)C(O)C(N)C2O)CC2OC(O)(CC(O)C(O)CCC(O)CC(O)CC(O)CC(=O)OC(C)C(C)C1O)CC(O)C2C(=O)NC1C(O)OC(CO)C(O)C1O (stereo not shown) [Compound 16] | 2 µg/mL (≈ 1.84 µM) | 8 µg/mL (≈ 7.37 µM) | 1 µg/mL (≈ 0.921 µM) | 1 µg/mL (≈ 0.921 µM) | 2.4 ± 0.12% | 2.3% and 2.2% and 2.6% | 3.1 ± 0.14% | 3.1% and 2.9% and 3.4% |  |  |  |  |  |  |  |  |  |  |  | 
6 | COC(=O)C(CO)NC(=O)C1C(O)CC2(O)CC(O)C(O)CCC(O)CC(O)CC(O)CC(=O)OC(C)C(C)C(O)C(C)C=CC=CC=CC=CC=CC=CC=CC(OC3OC(C)C(O)C(N)C3O)CC1O2 (stereo not shown) [Compound 13] | 1 µg/mL (≈ 0.975 µM) | 4 µg/mL (≈ 3.9 µM) | 1 µg/mL (≈ 0.975 µM) | 1 µg/mL (≈ 0.975 µM) | 3.7 ± 0.6% | 3.3% and 3.0% and 4.9% | 14.5 ± 0.5% | 15.5% and 14% and 14.2% | comparable anti-fungal activity to Amphotericin B and S44HP |  |  |  |  |  |  |  |  |  |  | 
7 | CNC(=O)C1C(O)CC2(O)CC(O)C(O)CCC(O)CC(O)CC(O)CC(=O)OC(C)C(C)C(O)C(C)C=CC=CC=CC=CC=CC=CC=CC(OC3OC(C)C(O)C(N)C3O)CC1O2 (stereo not shown) [Compound 6] | 4 µg/mL (≈ 4.27 µM) | 4 µg/mL (≈ 4.27 µM) | 2 µg/mL (≈ 2.13 µM) | 2 µg/mL (≈ 2.13 µM) |  |  |  |  |  |  |  |  |  |  |  |  |  |  | 3.7 ± 0.6% | 3.7% and 4.3% and 3.2% and 2% and 2.4% and 3.3% and 7%
8 | CC1C=CC=CC=CC=CC=CC=CC=CC(OC2OC(C)C(O)C(N(CCCN)CCCN)C2O)CC2OC(O)(CC(O)C(O)CCC(O)CC(O)CC(O)CC(=O)OC(C)C(C)C1O)CC(O)C2C(=O)O (stereo not shown) [Compound 22] | 1 µg/mL (≈ 0.963 µM) | 1 µg/mL (≈ 0.963 µM) | 1 µg/mL (≈ 0.963 µM) | 1 µg/mL (≈ 0.963 µM) |  |  |  |  | comparable anti-fungal activity to Amphotericin B and S44HP | 0.07 µg/mL (≈ 0.0674 µM) |  |  |  |  |  |  |  |  |  | 
